Laboratory results from US20230212788A1, “NEW METHOD FOR AUTOMATED ON-DEMAND BIOMOLECULAR ARRAY SYNTHESIS” (TECHNISCHE UNIVERSITAT DRESDEN, priority 2020, published 2023).

Assays:
[1] = molecular target: T1, streptavidin (Streptomyces avidinii, UniProt P22629); details: order of magnitude only; cited from earlier work
[2] = molecular target: T1, streptavidin; assay: Ligand array probed by fluorescently labelled streptavidin; type: binding; details: FIG. 10
Description: To increase the coupling yield, each coupling step was repeated two times. Same procedure was used in all amide bond formation reactions. After a capping step using 5% acetic anhydride/2% DIPEA, Fmoc was deprotected by immersing the glass slide in piperidine solution (DMF:ethanol 1:1). All amino groups not in the spotted area were acetylated in the first capping step. Therefore, no amide bond formation would be possible in these area in the following synthesis. The array was then probed by fluorescently labelled streptavidin or CypA (FIGS. 10 and 11). […] At this screening condition, the protein cannot distinguish between pM and low nM binders, while it can distinguish these two strong binders from the weaker µM binder iminobiotin.

[3] = molecular target: cyclophilin A (CypA) (Homo sapiens, UniProt P62937); details: array probed by fluorescently labelled CypA, FIG. 11
[4] = system: L929 cells; assay: Adhesion of L929 cells to peptides synthesized as array; type: cell-based; details: array without removing the lipophilic group, FIG. 16
Description: There were synthesized cell adhesive peptide RGDSP (SEQ ID NO: 180) and its mutant GGDSP (SEQ ID NO: 179) as array and investigated their effects on the adhesion to L929 cells. As the chitosan hydrogel coating provides a favorable surface for the adhesion of many types of cells, including L929 cells, the array has been synthesized without removing the lipophilic group. […] (FIG. 16) Therefore, the array technology can be used not only for protein-based high throughput screening, but also for developing novel biomaterials as well as cellular assays.

[5] = system: calcineurin; assay: Array incubated with fluorescently labelled calcineurin; type: binding; details: FIG. 13
Description: In order to probe protein-peptide interactions, a peptide was synthesized on the amphiphilic surface. The known calcineurin-binding peptide PVIVIT (SEQ ID NO: 13) and CsA1-COOH were synthesized on the surface. The glass slide was then incubated with fluorescently labelled calcineurin. […] Therefore, the on-demand peptide array synthesis technology can be used to investigate specific protein-peptide interaction.

T1 sequence (P22629 25-183): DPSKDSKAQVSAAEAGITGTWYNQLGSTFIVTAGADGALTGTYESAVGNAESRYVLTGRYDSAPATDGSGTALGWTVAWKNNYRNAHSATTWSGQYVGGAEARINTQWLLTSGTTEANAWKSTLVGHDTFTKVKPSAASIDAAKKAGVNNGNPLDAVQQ
Chain of cyclophilin A (CypA) (P62937 whole entry, species assumed): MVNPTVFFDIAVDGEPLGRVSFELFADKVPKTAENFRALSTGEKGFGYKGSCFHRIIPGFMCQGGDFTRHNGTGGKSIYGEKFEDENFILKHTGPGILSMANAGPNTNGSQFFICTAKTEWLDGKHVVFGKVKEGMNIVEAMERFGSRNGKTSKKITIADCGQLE

| Compound | Kd values / dissociation constant to streptavidin [1] | adhesion to L929 cells [4] | also measured |
| --- | --- | --- | --- |
| C[C@@H]1NC(=O)N[C@@H]1CCCCCC(=O)O [desthiobiotin] | low nM | – | – |
| N=C1N[C@H]2[C@H](CS[C@H]2CCCCC(=O)O)N1 [iminobiotin] | µM | – | fluorescent signal on spot [2]: much weaker than those of biotin and desthiobiotin |
| O=C(O)CCCC[C@@H]1SC[C@@H]2NC(=O)N[C@@H]21 [Biotin, biotin] | – | – | binding of CypA to spot [3]: not |
| RGDSP: cell adhesive peptide RGDSP | – | strong adhesion | – |
| PVIVIT: known calcineurin-binding peptide PVIVIT | – | – | binding of calcineurin to spot [5]: can bind specifically |
| GGDSP: mutant of cell adhesive peptide RGDSP | – | poor adhesion | – |
